{"source": "patent US20190388364A1", "about": "“[…] A LOCAL […]” (GRÜNENTHAL GMBH, priority 2017, published 2019)", "system": "guinea pig skin twitch response", "assay": "guinea pig skin test (skin twitch response, local anesthetic effect)", "type": "in vivo", "conditions": "for Stimuli per twitch response (means ± s.e.m.): max 20 stimuli; for number of animals with abrogated twitch response (max. effect): no twitch response after 20 stimuli", "experimental": "The local anesthetic effects of Tapentadol were studied in a guinea pig skin test.\nAnimals: Male Pirbright White guinea pigs from a commercial breeder (ca. 400 g body weights) were used for the study. The animals were housed under standard conditions: room temperature […], rel. air changes per hour, air movement <0.2 m/sec, light/dark rhythm (06.00-18.00 h light, 18.00-06.00 h dark). The animals had access to water ad libitum and to an exclusive diet of “Herilan RM 204” (Eggersmann Company, Rinteln/Germany). Before the experiment they lived in groups of 5-8 animals in type IV Makrolone cages (Ebeco Company, Castrop-Rauxel/Germany). There were at least five days between delivery of the animals and the test day.\nTapentadol (test compound was) dissolved in 0.9% NaCl solution. Application route: intradermal application. Application volume: 0.1 ml per application site. Concentrations: 0.05/0.01/0.3/0.5%.\nApplication route: intradermal application. Application volume: 0.1 ml per application site. Concentrations: 0.1/0.3/1.0.\nThe experiments were performed according to a modified method originally described by Bülbring and Wajda (J Pharm Exp Ther 85: 78-84, 1945). After erasure of the back of the animals 0.1 ml of solutions of the test compounds or of vehicle (0.9% NaCl) were injected intradermally. There were 3 injection sites each on both flanks of the back with a craniocaudal distance between them of 1.5 cm. A twitch response of the skin musculature was provoked by contact of these sites with the tip of an injection cannula. The number of the stimuli needed to provoke a twitch response was registered. A maximum of 20 stimuli per site was allowed. […] Thereafter, solution with different concentrations of the test compounds or vehicle were injected and the skin sensitivity was evaluated at 2, 5, 10, 15 and 20 min. The different test solutions were injected on both flanks of the back into the cranial, intermediate or caudal test site in a randomized order.\nTest parameter: Stimuli per twitch response.\nEach concentration of the test compounds was tested at 6-7 sites. The means±s.e.m. of stimuli that were necessary to induce a twitch response were calculated for the different times after application. In addition, number of tests with a complete abolition of skin sensitivity (i.e., no twitch response after 20 stimuli) was used to calculate an EC50-value (with 95% confidence limits) according to Litchfield and Wilcoxon.", "key": {"[1]": {"conditions": "0.1 wt.-% intradermal, 2 min after application"}, "[2]": {"conditions": "0.1 wt.-% intradermal, 5 min after application"}, "[3]": {"conditions": "0.1 wt.-% intradermal, 10 min after application"}, "[4]": {"conditions": "0.1 wt.-% intradermal, 15 min after application"}, "[5]": {"conditions": "0.1 wt.-% intradermal, 20 min after application"}, "[6]": {"conditions": "0.3 wt.-% intradermal, 2 min after application"}, "[7]": {"conditions": "0.3 wt.-% intradermal, 5 min after application"}, "[8]": {"conditions": "0.3 wt.-% intradermal, 10 min after application"}, "[9]": {"conditions": "0.3 wt.-% intradermal, 15 min after application"}, "[10]": {"conditions": "0.3 wt.-% intradermal, 20 min after application"}}, "data": [{"molecule": "CC[C@@H](c1cccc(O)c1)[C@@H](C)CN(C)C", "note": "[Tapentadol, (1R,2R)-3-(3-dimethylamino-1-ethyl-2-methyl-propyl)-phenol]", "values": [{"measurement": "Stimuli per twitch response (means ± s.e.m.)", "setting": "0.05 wt.-% intradermal, 0.1 ml per site, 2 min after application", "value": "6 ± 3"}, {"measurement": "Stimuli per twitch response (means ± s.e.m.)", "setting": "0.05 wt.-% intradermal, 5 min after application", "value": 1}, {"measurement": "Stimuli per twitch response (means ± s.e.m.)", "setting": "0.05 wt.-% intradermal, 10 min after application", "value": 1}, {"measurement": "Stimuli per twitch response (means ± s.e.m.)", "setting": "0.05 wt.-% intradermal, 15 min after application", "value": 1}, {"measurement": "Stimuli per twitch response (means ± s.e.m.)", "setting": "0.05 wt.-% intradermal, 20 min after application", "value": 1}, {"measurement": "number of animals with abrogated twitch response (max. effect)", "setting": "0.05 wt.-% intradermal", "value": "1 of 7"}, {"measurement": "Stimuli per twitch response (means ± s.e.m.)", "setting": "[1]", "value": "12 ± 4"}, {"measurement": "Stimuli per twitch response (means ± s.e.m.)", "setting": "[2]", "value": "2 ± 1"}, {"measurement": "Stimuli per twitch response (means ± s.e.m.)", "setting": "[3]", "value": 1}, {"measurement": "Stimuli per twitch response (means ± s.e.m.)", "setting": "[4]", "value": 1}, {"measurement": "Stimuli per twitch response (means ± s.e.m.)", "setting": "[5]", "value": 1}, {"measurement": "number of animals with abrogated twitch response (max. effect)", "setting": "0.1 wt.-% intradermal", "value": "3 of 6"}, {"measurement": "Stimuli per twitch response (means ± s.e.m.)", "setting": "[6]", "value": 20}, {"measurement": "Stimuli per twitch response (means ± s.e.m.)", "setting": "[7]", "value": 20}, {"measurement": "Stimuli per twitch response (means ± s.e.m.)", "setting": "[8]", "value": "4 ± 3"}, {"measurement": "Stimuli per twitch response (means ± s.e.m.)", "setting": "[9]", "value": "2 ± 1"}, {"measurement": "Stimuli per twitch response (means ± s.e.m.)", "setting": "[10]", "value": 1}, {"measurement": "number of animals with abrogated twitch response (max. effect)", "setting": "0.3 wt.-% intradermal", "value": "7 of 7"}, {"measurement": "Stimuli per twitch response (means ± s.e.m.)", "setting": "0.5 wt.-% intradermal, 2 min after application", "value": 20}, {"measurement": "Stimuli per twitch response (means ± s.e.m.)", "setting": "0.5 wt.-% intradermal, 5 min after application", "value": 20}, {"measurement": "Stimuli per twitch response (means ± s.e.m.)", "setting": "0.5 wt.-% intradermal, 10 min after application", "value": "10 ± 3"}, {"measurement": "Stimuli per twitch response (means ± s.e.m.)", "setting": "0.5 wt.-% intradermal, 15 min after application", "value": "3 ± 2"}, {"measurement": "Stimuli per twitch response (means ± s.e.m.)", "setting": "0.5 wt.-% intradermal, 20 min after application", "value": 1}, {"measurement": "number of animals with abrogated twitch response (max. effect)", "setting": "0.5 wt.-% intradermal", "value": "7 of 7"}, {"measurement": "time of maximum effect after application", "setting": "intradermal, 0.05 to 0.5%", "value": 2, "unit": "min"}, {"measurement": "local anesthetic effect at 20 min after application", "setting": "intradermal, up to the highest concentration (0.5%)", "value": "completely disappeared"}]}, {"molecule": "COc1cccc(C2(O)CCCCC2CN(C)C)c1", "note": "(centres unmarked) [Tramadol]", "values": [{"measurement": "Stimuli per twitch response (means ± s.e.m.)", "setting": "[1]", "value": 1}, {"measurement": "Stimuli per twitch response (means ± s.e.m.)", "setting": "[2]", "value": 1}, {"measurement": "Stimuli per twitch response (means ± s.e.m.)", "setting": "[3]", "value": 1}, {"measurement": "Stimuli per twitch response (means ± s.e.m.)", "setting": "[4]", "value": 1}, {"measurement": "Stimuli per twitch response (means ± s.e.m.)", "setting": "[5]", "value": 1}, {"measurement": "Stimuli per twitch response (means ± s.e.m.)", "setting": "[6]", "value": "8 ± 3"}, {"measurement": "Stimuli per twitch response (means ± s.e.m.)", "setting": "[7]", "value": "6 ± 3"}, {"measurement": "Stimuli per twitch response (means ± s.e.m.)", "setting": "[8]", "value": "3 ± 2"}, {"measurement": "Stimuli per twitch response (means ± s.e.m.)", "setting": "[9]", "value": "3 ± 2"}, {"measurement": "Stimuli per twitch response (means ± s.e.m.)", "setting": "[10]", "value": "3 ± 2"}, {"measurement": "Stimuli per twitch response (means ± s.e.m.)", "setting": "1.0 wt.-% intradermal, 2 min after application", "value": 20}, {"measurement": "Stimuli per twitch response (means ± s.e.m.)", "setting": "1.0 wt.-% intradermal, 5 min after application", "value": 20}, {"measurement": "Stimuli per twitch response (means ± s.e.m.)", "setting": "1.0 wt.-% intradermal, 10 min after application", "value": 20}, {"measurement": "Stimuli per twitch response (means ± s.e.m.)", "setting": "1.0 wt.-% intradermal, 15 min after application", "value": "15 ± 3"}, {"measurement": "Stimuli per twitch response (means ± s.e.m.)", "setting": "1.0 wt.-% intradermal, 20 min after application", "value": "14 ± 3"}]}]}
